{
  "source": "patent US11633473B2",
  "about": "(priority 2017, dated 2023)",
  "key": {"[1]": {"system": "neonatal BMDCs", "assay": "BMDC in vitro stimulation with PRR agonists/adjuvants, 20-24 h: cytokines by ELISA, maturation markers by flow cytometry", "type": "cell-based, C57BL/6 mice", "method": "Briefly, mice were sacrificed and legs removed; bones were surgically cleaned from surrounding tissue, extremities of tibiae and femurs were trimmed with sterile scissors and bone marrow flushed through a 70 μm nylon mesh strainer (Corning Life Sciences). Cell number and viability was determined by trypan blue exclusion. […] Plates were incubated in humidified atmosphere at 37° C., 5% CO2 for 6 days, with one supplement of 10 ml of complete culture medium and rmGM-CSF on day 3. On Day 6, non-adherent and loosely adherent cells were harvested by washing the plate gently with culture medium. Adherent cells were discarded. For flow cytometry analysis, BMDCs were stained (20 minutes at 4° C.) in PBS+FBS 2%+EDTA 2 mM, fixed with formaldehyde 4% (10 minutes at RT) and acquired on a BD LSRFortessa flow cytometer (BD Biosciences) or a Sony spectral analyzer SP6800 (Sony Biotechnology) and data were analyzed using FlowJo v.10 software (Tree Star). For a complete list of antibodies and fluorochromes used in the study see Table 2.\nRough (Salmonella Minnesota, R595) and smooth (Escherichia coli, O55:B5) lipopolysaccharide (LPS) were purchased from List Biological Laboratories. […] All PRR agonists employed in the studies were chosen based on and verified endotoxin free as indicated by the manufacturers. For stimulation experiments, immature BMDCs generated from newborn and adult mice were plated in round bottom 96-wells non-tissue culture-treated plates at the density of 10^5 cells/well in 200 μl of fresh complete culture medium with rmGM-CSF as described above, with the appropriate stimuli at the concentrations indicated in Table 3. Cells were incubated at 37° C. for 20-24 hours, then supernatant harvested and TNF, IL-6, IL-1β and IL-12p70 concentrations were measured by ELISA (R&D Systems). IFNβ was measured with a bioluminescent ELISA kit (LumiKine, Invivogen). Alternatively, BMDCs were stained and analyzed by flow cytometry as indicated above."}, "[2]": {"system": "adult BMDCs", "assay": "BMDC in vitro stimulation with PRR agonists/adjuvants, 20-24 h: cytokines by ELISA", "type": "cell-based, C57BL/6 mice", "conditions": "increasing concentrations", "method": "BMDCs were generated from newborn (5-7 days old) and adult (6-12 weeks old) C57BL/6 mice with an adaptation of previously described methods (Dowling et al., 2008, Lutz et al., 1999). Briefly, mice were sacrificed and legs removed; bones were surgically cleaned from surrounding tissue, extremities of tibiae and femurs were trimmed with sterile scissors and bone marrow flushed through a 70 μm nylon mesh strainer (Corning Life Sciences). Cell number and viability was determined by trypan blue exclusion. […] For flow cytometry analysis, BMDCs were stained (20 minutes at 4° C.) in PBS+FBS 2%+EDTA 2 mM, fixed with formaldehyde 4% (10 minutes at RT) and acquired on a BD LSRFortessa flow cytometer (BD Biosciences) or a Sony spectral analyzer SP6800 (Sony Biotechnology) and data were analyzed using FlowJo v.10 software (Tree Star). […]\nRough (Salmonella Minnesota, R595) and smooth (Escherichia coli, O55:B5) lipopolysaccharide (LPS) were purchased from List Biological Laboratories. […] Cells were incubated at 37° C. for 20-24 hours, then supernatant harvested and TNF, IL-6, IL-1β and IL-12p70 concentrations were measured by ELISA (R&D Systems). IFNβ was measured with a bioluminescent ELISA kit (LumiKine, Invivogen). Alternatively, BMDCs were stained and analyzed by flow cytometry as indicated above. […]"}, "[3]": {"system": "newborn mice", "type": "in vivo", "conditions": "single dose immunization, serum at DOL 35"}, "[4]": {"assay": "Quantification of 2′3′-cGAMP adsorption onto alum by RP-HPLC", "conditions": "for % Adsorbed to Alum: 1:10 cGAMP:alum mass ratio, saline", "description": "After vortexing for 10 seconds the sample was placed in a 37° C. incubator. Every 15 minutes the sample was vortexed for an additional 5 seconds and placed back into the incubator. […] Supernatant was immediately removed and placed into an autosampler vial undiluted for analysis by reverse-phase high performance liquid chromatography (RP-HPLC) to determine adsorption as a function of time. RP-HPLC samples were run on a Waters 2695 HPLC equipped with a 2996 photodiode array detector at a wavelength of 254 nm. A gradient was performed using a two mobile phase system of 0.1% trifluoroacetic acid in water and 0.1% trifluoroacetic acid in acetonitrile, on an Agilent Zorbax Eclipse Plus C18, 4.6×150 mm, 5 micron column at 25° C."}, "[5]": {"system": "adult C57BL/6 mice", "type": "in vivo", "conditions": "prime-boost i.m., rHA + adjuvant, Day 35 post-prime"}, "[6]": {"system": "newborn C57BL/6 mice", "type": "in vivo", "conditions": "prime-boost DOL 7 and 14, Day 35 post-prime (DOL 42)"}},
  "data": [
    {"smiles": "CCCCNc1nc(N)c2[nH]c(=O)n(Cc3ccc(C(=O)NCC(=O)O)cc3)c2n1", "note": "[CL264, reference compound]", "values": [
      {"measurement": "IL-12p70 production by neonatal BMDCs", "setting": "[1]; most effective non-toxic concentration, 20-24 h", "value": "failed to produce IL-12p′70"}
    ]},
    {"smiles": "Nc1nc2c(ncn2[C@@H]2O[C@@H]3COP(=O)(O)O[C@H]4[C@@H](O)[C@H](n5cnc6c(N)ncnc65)O[C@@H]4COP(=O)(O)O[C@@H]2[C@@H]3O)c(=O)[nH]1", "note": "[cGAMP, cyclic guanosine monophosphate (GMP)-adenosine monophosphate (AMP)]", "values": [
      {"measurement": "upregulation of surface maturation markers (CD40, CD80, CD86), neonatal vs adult BMDCs", "setting": "[1]; 20-24 h stimulation", "value": "comparable"},
      {"measurement": "dependence of neonatal BMDC maturation marker expression on type I IFN signaling", "setting": "[1]; cGAMP 25 μg/ml, blocking anti-TNF and anti-IFNAR antibodies", "value": "type I interferon-dependent manner"},
      {"measurement": "upregulation of surface maturation marker expression, cGAMP vs R848", "setting": "[1]; neonatal and adult BMDCs, different concentrations", "value": "more effective than R848"},
      {"measurement": "IFNβ production", "setting": "[1]; newborn BMDCs, increasing concentrations", "value": "dose-dependent IFNβ production"},
      {"measurement": "IFNβ production", "setting": "[2]", "value": "dose-dependent IFNβ production"},
      {"measurement": "median anti-rHA IgG1 titers", "setting": "[3]", "value": "did not induce detectable"},
      {"measurement": "median anti-rHA IgG2c titers", "setting": "[3]", "value": "did not induce detectable"},
      {"measurement": "median anti-rHA IgG titers", "setting": "[3]", "value": "did not induce detectable"},
      {"measurement": "degradation products during incubation with alum", "setting": "[4]; 37° C., over 24 hours", "value": "No significant degradation products"},
      {"measurement": "Peak Area of cGAMP in supernatant (RP-HPLC, 254 nm)", "setting": "[4]; 15 min, 37° C.", "value": 22.53, "unit": "mAU"},
      {"measurement": "% Adsorbed to Alum", "setting": "[4]; 15 min, 37° C.", "value": 63, "unit": "%"},
      {"measurement": "Peak Area of cGAMP in supernatant (RP-HPLC, 254 nm)", "setting": "[4]; 30 min, 37° C.", "value": 22.93, "unit": "mAU"},
      {"measurement": "% Adsorbed to Alum", "setting": "[4]; 30 min, 37° C.", "value": 62.34, "unit": "%"},
      {"measurement": "Peak Area of cGAMP in supernatant (RP-HPLC, 254 nm)", "setting": "[4]; 1 hour, 37° C.", "value": 22.22, "unit": "mAU"},
      {"measurement": "% Adsorbed to Alum", "setting": "[4]; 1 hour, 37° C.", "value": 63.51, "unit": "%"},
      {"measurement": "Peak Area of cGAMP in supernatant (RP-HPLC, 254 nm)", "setting": "[4]; 2 hours, 37° C.", "value": 20.83, "unit": "mAU"},
      {"measurement": "% Adsorbed to Alum", "setting": "[4]; 2 hours, 37° C.", "value": 65.79, "unit": "%"},
      {"measurement": "Peak Area of cGAMP in supernatant (RP-HPLC, 254 nm)", "setting": "[4]; 4 hours, 37° C.", "value": 21.02, "unit": "mAU"},
      {"measurement": "% Adsorbed to Alum", "setting": "[4]; 4 hours, 37° C.", "value": 65.48, "unit": "%"},
      {"measurement": "Peak Area of cGAMP in supernatant (RP-HPLC, 254 nm)", "setting": "[4]; 24 hours, 37° C.", "value": 15.02, "unit": "mAU"},
      {"measurement": "% Adsorbed to Alum", "setting": "[4]; 24 hours, 37° C.", "value": 75.33, "unit": "%"},
      {"measurement": "cGAMP adsorbed onto alum in vitro", "setting": "[4]; summary statement in discussion, no time given", "value": "about 60%"},
      {"measurement": "median anti-rHA IgG1 titers", "setting": "[5]", "value": "0.77×10^6"},
      {"measurement": "median anti-rHA IgG2c titers", "setting": "[5]", "value": "0.82×10^6"},
      {"measurement": "median anti-rHA IgG titers", "setting": "[5]", "value": "increased anti-rHA IgG titers"},
      {"measurement": "median anti-rHA IgG1 titers", "setting": "[6]", "value": "24.51×10^3"},
      {"measurement": "median anti-rHA IgG2c titers", "setting": "[6]", "value": "0.23×10^3"},
      {"measurement": "median anti-rHA IgG titers", "setting": "[6]", "value": "20.57×10^3"}
    ]}
  ]
}
